According to paper PMC5991783, “Discovery and Optimization of Indolyl-Containing 4-Hydroxy-2-Pyridone Type II DNA Topoisomerase Inhibitors Active against Multidrug Resistant Gram-negative Bacteria” (Journal of Medicinal Chemistry, 2018):

How the values were obtained:
E. coli^WT (ATCC 25922) = assay: Mouse septicemia model; assay type: in vivo, CD-1 mice; settings: Mus musculus, iv, 96 h; read-out: survival
E. coli ATCC 25922 = assay: MIC, wild-type E. coli ATCC 25922; assay type: cell-based, Escherichia coli; settings: Escherichia coli, ATCC25922; E. coli ATCC 25922; read-out: MIC E. coli^WT
E. coli DNA gyrase = E. coli DNA gyrase (Escherichia coli, UniProt P0AES4+P0AES6); assay: biochemical; settings: E. coli DNA gyrase IC50
[1] = Mouse plasma protein binding, equilibrium dialysis
human topoisomerase II = human topoisomerase II (Homo sapiens, UniProt P11388); assay: Human topoisomerase II decatenation assay; assay type: biochemical; settings: Supplemental Table 1; read-out: Human Topo II IC50
[2] = test system: Klebsiella pneumoniae ATCC 35657; assay: MIC, wild-type K. pneumoniae; assay type: cell-based; settings: Klebsiella pneumoniae, ATCC35657; K. pneumoniae ATCC 35657; read-out: MIC K. pneu^WT
[3] = Pharmacokinetics in CD-1 mice; settings: CD-1, mouse, plasma
E. coli ELZ4251 = assay: MIC, clinical isolate E. coli ELZ4251; assay type: cell-based; settings: Escherichia coli, read-out: MIC E. coli^R2
E. coli SKM18 = assay: microbe, parasite or virus in culture; assay type: cell-based, Escherichia coli; settings: Escherichia coli, SKM18, read-out: MIC E. coli^R1, E. coli SKM18
[4] = test system: panel of 12 E. coli isolates; assay: Susceptibility testing, 12 E. coli isolates; assay type: cell-based, Escherichia coli; settings: 12 strains
[5] = test system: Acinetobacter baumannii ATCC BAA-747; assay: MIC, wild-type A. baumannii; assay type: cell-based; settings: Acinetobacter baumannii, ATCCBAA747; A. baumannii ATCC BAA-747; read-out: MIC A. bau^WT
[6] = test system: panel of 12 A. baumannii isolates; assay: Susceptibility testing, 12 A. baumannii isolates; assay type: cell-based, Acinetobacter baumannii; settings: 12 strains
A. baumannii MMX2240 = assay: MIC, fluoroquinolone resistant A. baumannii; assay type: cell-based, Acinetobacter baumannii; settings: Acinetobacter baumannii

Sequence of human topoisomerase II (P11388 whole entry): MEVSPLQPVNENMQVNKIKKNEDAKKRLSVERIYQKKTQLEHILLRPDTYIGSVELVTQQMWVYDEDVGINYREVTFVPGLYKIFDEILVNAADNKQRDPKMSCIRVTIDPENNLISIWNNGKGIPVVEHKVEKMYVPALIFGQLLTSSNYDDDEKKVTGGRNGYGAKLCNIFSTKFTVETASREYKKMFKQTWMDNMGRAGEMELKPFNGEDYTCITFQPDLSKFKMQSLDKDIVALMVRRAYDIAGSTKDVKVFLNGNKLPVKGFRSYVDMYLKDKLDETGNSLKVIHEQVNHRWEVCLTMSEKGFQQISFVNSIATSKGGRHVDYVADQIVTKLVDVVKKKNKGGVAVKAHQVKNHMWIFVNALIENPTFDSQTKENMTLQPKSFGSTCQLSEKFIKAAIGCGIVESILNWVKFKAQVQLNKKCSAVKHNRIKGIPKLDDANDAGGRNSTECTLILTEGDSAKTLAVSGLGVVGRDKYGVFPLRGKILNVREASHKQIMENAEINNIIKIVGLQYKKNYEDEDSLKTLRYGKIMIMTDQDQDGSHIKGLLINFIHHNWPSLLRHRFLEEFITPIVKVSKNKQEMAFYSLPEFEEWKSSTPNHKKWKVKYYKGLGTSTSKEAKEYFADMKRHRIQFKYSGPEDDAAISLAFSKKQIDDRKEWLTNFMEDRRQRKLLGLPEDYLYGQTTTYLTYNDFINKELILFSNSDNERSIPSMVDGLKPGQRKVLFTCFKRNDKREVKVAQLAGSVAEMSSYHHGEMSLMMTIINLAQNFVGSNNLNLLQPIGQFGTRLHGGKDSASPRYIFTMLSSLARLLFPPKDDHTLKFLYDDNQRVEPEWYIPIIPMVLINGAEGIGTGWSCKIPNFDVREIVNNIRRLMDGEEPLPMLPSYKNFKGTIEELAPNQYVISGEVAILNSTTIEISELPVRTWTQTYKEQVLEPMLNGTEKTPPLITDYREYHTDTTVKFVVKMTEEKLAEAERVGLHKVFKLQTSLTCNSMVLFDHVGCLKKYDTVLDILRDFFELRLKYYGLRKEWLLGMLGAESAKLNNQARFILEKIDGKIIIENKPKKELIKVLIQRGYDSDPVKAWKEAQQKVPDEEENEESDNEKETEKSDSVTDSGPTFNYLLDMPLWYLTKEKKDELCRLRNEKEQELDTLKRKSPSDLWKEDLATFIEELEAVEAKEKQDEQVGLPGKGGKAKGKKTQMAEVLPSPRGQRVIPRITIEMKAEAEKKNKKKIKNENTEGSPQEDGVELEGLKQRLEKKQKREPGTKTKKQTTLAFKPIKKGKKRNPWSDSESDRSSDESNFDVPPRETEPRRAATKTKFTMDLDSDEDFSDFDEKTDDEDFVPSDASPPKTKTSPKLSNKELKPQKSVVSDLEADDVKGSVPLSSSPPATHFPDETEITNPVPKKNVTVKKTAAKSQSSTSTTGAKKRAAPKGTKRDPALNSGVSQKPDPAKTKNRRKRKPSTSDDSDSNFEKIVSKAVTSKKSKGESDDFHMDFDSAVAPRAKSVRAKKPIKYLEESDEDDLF
Sequence of E. coli DNA gyrase (P0AES4 whole entry, one chain of several): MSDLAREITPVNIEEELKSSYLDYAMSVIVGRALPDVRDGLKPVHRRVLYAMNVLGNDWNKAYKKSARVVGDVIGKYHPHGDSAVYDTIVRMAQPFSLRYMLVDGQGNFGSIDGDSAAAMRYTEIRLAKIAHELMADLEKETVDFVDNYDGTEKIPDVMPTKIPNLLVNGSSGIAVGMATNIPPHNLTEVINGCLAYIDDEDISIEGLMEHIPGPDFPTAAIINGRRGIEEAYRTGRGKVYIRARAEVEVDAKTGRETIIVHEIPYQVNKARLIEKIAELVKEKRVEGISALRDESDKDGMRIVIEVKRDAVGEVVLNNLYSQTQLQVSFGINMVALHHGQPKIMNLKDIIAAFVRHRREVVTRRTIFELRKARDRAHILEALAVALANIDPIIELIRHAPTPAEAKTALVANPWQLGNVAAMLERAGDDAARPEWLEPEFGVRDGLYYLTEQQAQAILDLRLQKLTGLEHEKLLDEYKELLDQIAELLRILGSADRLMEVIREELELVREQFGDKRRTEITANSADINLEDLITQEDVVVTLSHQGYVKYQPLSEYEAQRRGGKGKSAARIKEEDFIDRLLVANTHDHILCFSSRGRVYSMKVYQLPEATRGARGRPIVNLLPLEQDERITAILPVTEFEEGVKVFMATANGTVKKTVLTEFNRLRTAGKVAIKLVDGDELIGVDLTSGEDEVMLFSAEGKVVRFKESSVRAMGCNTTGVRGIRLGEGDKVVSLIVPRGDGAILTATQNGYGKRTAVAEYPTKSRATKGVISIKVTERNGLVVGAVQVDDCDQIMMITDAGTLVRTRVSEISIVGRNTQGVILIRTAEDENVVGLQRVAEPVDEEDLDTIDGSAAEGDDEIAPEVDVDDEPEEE

CCC(C)NCc1cc2cc3c(cc2n1C)OCCc1c-3[nH]c(=O)c(C(=O)O)c1O.Cl (stereo not drawn) [Compound 6o, 10-((sec-Butylamino)methyl)-4-hydroxy-9-methyl-2-oxo-2,5,6,9-tetrahydro-1H-pyrido[2′,3′:4,5]oxepino[3,2-f]indole-3-carboxylic Acid Hydrochloride]
responders at 20 mg/kg (E. coli^WT (ATCC 25922)): 100% | MIC (E. coli ATCC 25922): 0.78 µg/mL | IC50 (E. coli DNA gyrase): 110 nM | fraction unbound at 1 μM [1]: 0.23 | IC50 (human topoisomerase II): > 100000 nM | MIC [2]: 1 µg/mL | AUC(0-t) ([3]; iv, 10 mg/kg, pH 8): 3440 ng·h/mL | clearance ([3]; iv, 10 mg/kg, pH 8): 48 mL/min/kg | half-life ([3]; iv, 10 mg/kg, pH 8): 2.1 h | bioavailability ([3]; po): 41% | MIC (E. coli ELZ4251): 2 µg/mL | MIC (E. coli SKM18): 0.78 µg/mL | E. coli MIC90 ([4]; Mueller Hinton II broth): 1 µg/mL | MIC90 ([4]; Escherichia coli, Mueller Hinton II broth, read-out: E. coli MIC90): 0.5 to 1 µg/mL | MIC50 ([4]; Escherichia coli): 1 µg/mL | MIC ([4]; Escherichia coli, read-out: E. coli MIC range): 0.12 to 1 µg/mL | MIC [5]: 1.6 µg/mL | A. baumannii MIC90 ([6]; Mueller Hinton II broth): 8 µg/mL | MIC90 ([6]; Acinetobacter baumannii, Mueller Hinton II broth, read-out: A. baumannii MIC90): 8 to 16 µg/mL | MIC50 ([6]; Acinetobacter baumannii): 2 µg/mL | MIC (A. baumannii MMX2240): 0.78 µg/mL
